Experimental data from patent US11477952B2, “Endophytic microbial seed treatment formulations and methods related thereto for improved plant performance” (ADVANCED BIOLOGICAL MARKETING, INC., priority 2017, dated 2022).

Tested on: seedlings
Experiment: Preliminary and greenhouse tests of 1-octen-3-ol on plant growth
Format: in vivo
Description: These endophytic microorganisms frequently are fully symbiotic with plants (Harman, Howell, et al., 2004). These endophytic symbionts have abilities to induce multiple beneficial effects in plants, including induced resistance to diseases and potentially other pests; resistance to abiotic stresses such as drought, salt and flooding; improved efficiency of uses of nitrogen and other plant nutrients; enhancement of seed germination and seedling vigor; and enhanced plant growth and development. There are numerous diverse genera of microbes that induce at least most of these changes in plant performance, including mycorrhizae, plant growth promoting rhizobacteria, and Basidomycetous fungi in the Sebaciles such as Piriformaspora indica. These organisms have an endophytic versus a plant pathogenic life style (Shoresh, Mastouri, et al., 2010) typical of numerous other plant-associated microorganisms. The systemic changes in plant gene expression are presumed to be induced by the production of specific triggering metabolites from these different organisms. […]
Unexpected is the effect of the OMEGA biorational seed treatments that contain the fungal metabolite 1-octen-3-ol, yeast extract and humic acid (Leonardite shale). […] Thus the quantities applied are very small and cannot grow or proliferate on or in plants so their effects were expected to be transitory. […]

What does the source list for C=CC(O)CCCCC (centres unmarked) [1-octen-3-ol]?
seedling growth (greenhouse, 200 to 20,000 pL in different formulations, data not shown): plant growth promotive effects on seedling growth; plant growth (very low concentrations, preliminary work): strongly enhances plant growth
